Data from paper PMC9583304 (ACS Omega, 2022).

Target: T1, porcine pancreatic lipase (Sus scrofa, UniProt P00591)
T1 sequence (P00591 1-450): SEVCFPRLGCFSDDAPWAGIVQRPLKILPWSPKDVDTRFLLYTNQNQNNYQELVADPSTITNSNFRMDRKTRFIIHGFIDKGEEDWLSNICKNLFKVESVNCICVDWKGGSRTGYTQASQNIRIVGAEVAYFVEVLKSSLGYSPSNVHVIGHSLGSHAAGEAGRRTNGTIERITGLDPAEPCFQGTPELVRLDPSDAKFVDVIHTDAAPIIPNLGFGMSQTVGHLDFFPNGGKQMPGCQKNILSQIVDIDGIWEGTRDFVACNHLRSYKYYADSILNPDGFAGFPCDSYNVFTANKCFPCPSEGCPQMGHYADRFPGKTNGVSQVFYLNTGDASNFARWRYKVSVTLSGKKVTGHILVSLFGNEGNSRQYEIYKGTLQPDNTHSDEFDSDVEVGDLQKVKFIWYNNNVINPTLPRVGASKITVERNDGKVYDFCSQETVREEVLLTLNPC
Test: Pancreatic lipase assay
Assay type: biochemical

IC50: 11.2 µM
SMILES: O=C(O[C@@H]1C=C[C@@H](OC(=O)c2ccccc2)[C@](O)(CO)[C@H]1O)c1ccccc1 (relative stereo) [Compound 1, (1R*,4R*,5S*,6S*)-5,6-dihydroxy-5-(hydroxymethyl)cyclohex-2-ene-1,4-diyl dibenzoate]
